Experimental data published in ChEMBL document CHEMBL1201862, “PubChem BioAssay data set” (2004).
Values joined by “and” are separate entries in the source; they are usually repeats but may differ in a detail not shown here. Identical values can stand only once.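 Method: 48-hour compound exposure of cells in 96-well plates, five concentrations, linear interpolation of endpoints. GI50 = concentration required for 50% inhibition of growth.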 Active and inactive are the calls of the source. No stated cut-off is given here; in the data, active = GI50 up to about 1.1 µM and inactive = higher.

Key:
Assay in all cases: inhibition of tumour cell growth, NCI panel, 48 h
786-0 = tested on: 786-0
A498 = tested on: A498
A549 = tested on: A549
ACHN = tested on: ACHN
CCRF-CEM = tested on: CCRF-CEM
COLO 205 = tested on: COLO 205
DLD-1 = tested on: DLD-1
DMS-114 = tested on: DMS-114
DMS-273 = tested on: DMS-273
EKVX = tested on: EKVX
HCC 2998 = tested on: HCC 2998
HCT-116 = tested on: HCT-116
HCT-15 = tested on: HCT-15
HL-60 = tested on: HL-60
HOP-18 = tested on: HOP-18
HOP-62 = tested on: HOP-62
HT-29 = tested on: HT-29
IGROV-1 = tested on: IGROV-1
K562 = tested on: K562
KM-20L2 = tested on: KM-20L2
KM12 = tested on: KM12
LOX IMVI = tested on: LOX IMVI
LXFL 529 = tested on: LXFL 529
M14 = tested on: M14
M19-MEL = tested on: M19-MEL
MOLT-4 = tested on: MOLT-4
Malme-3M = tested on: Malme-3M
NCI-H226 = tested on: NCI-H226
NCI-H23 = tested on: NCI-H23
NCI-H460 = tested on: NCI-H460
NCI-H522 = tested on: NCI-H522
OVCAR-3 = tested on: OVCAR-3
OVCAR-5 = tested on: OVCAR-5
OVCAR-8 = tested on: OVCAR-8
RPMI-8226 = tested on: RPMI-8226
RXF 393 = tested on: RXF 393
SF-295 = tested on: SF-295
SF-539 = tested on: SF-539
SK-MEL-28 = tested on: SK-MEL-28
SK-MEL-2 = tested on: SK-MEL-2
SK-MEL-5 = tested on: SK-MEL-5
SK-OV-3 = tested on: SK-OV-3
SN12C = tested on: SN12C
SNB-19 = tested on: SNB-19
SNB-75 = tested on: SNB-75
SNB-78 = tested on: SNB-78
SR = tested on: SR
SW-620 = tested on: SW-620
TK-10 = tested on: TK-10
U-251 = tested on: U-251
UACC-257 = tested on: UACC-257
UACC-62 = tested on: UACC-62
UO-31 = tested on: UO-31
XF498 = tested on: XF498
CAKI-1 = tested on: CAKI-1
HOP-92 = tested on: HOP-92
MCF7 = tested on: MCF7
NCI/ADR-RES = tested on: NCI/ADR-RES
OVCAR-4 = tested on: OVCAR-4
SF-268 = tested on: SF-268
DU-145 = tested on: DU-145
Hs-578T = tested on: Hs-578T
MDA-MB-231 = tested on: MDA-MB-231
MDA-N = tested on: MDA-N
PC-3 = tested on: PC-3
RXF 631 = tested on: RXF 631
T47D = tested on: T47D

Brc1ccc(C[P+]2(c3ccccc3)CCCCC2)cc1.[O-][Cl+3]([O-])([O-])[O-]
GI50 (786-0): > 100 µM (inactive)
GI50 (A498): > 100 µM (inactive)
GI50 (A549): > 100 µM (inactive)
GI50 (ACHN): > 100 µM (inactive)
GI50 (CCRF-CEM): 82 µM (inactive)
GI50 (COLO 205): 20.5 µM (inactive)
GI50 (DLD-1): > 100 µM (inactive)
GI50 (DMS-114): 39.5 µM (inactive)
GI50 (DMS-273): 37.7 µM (inactive)
GI50 (EKVX): > 100 µM (inactive)
GI50 (HCC 2998): 36.9 µM (inactive)
GI50 (HCT-116): 68.7 µM (inactive)
GI50 (HCT-15): > 100 µM
GI50 (HL-60): 20.4 µM (inactive)
GI50 (HOP-18): > 100 µM (inactive)
GI50 (HOP-62): > 100 µM (inactive)
GI50 (HT-29): 38.8 µM (inactive)
GI50 (IGROV-1): 81.3 µM (inactive)
GI50 (K562): 77.4 µM (inactive)
GI50 (KM-20L2): 61.2 µM (inactive)
GI50 (KM12): 56.1 µM (inactive)
GI50 (LOX IMVI): 63.2 µM (inactive)
GI50 (LXFL 529): 25.1 µM (inactive)
GI50 (M14): 65.9 µM (inactive)
GI50 (M19-MEL): 25.4 µM (inactive)
GI50 (MOLT-4): > 100 µM (inactive)
GI50 (Malme-3M): 58.5 µM (inactive)
GI50 (NCI-H226): > 100 µM (inactive)
GI50 (NCI-H23): 96.2 µM (inactive)
GI50 (NCI-H460): > 100 µM (inactive)
GI50 (NCI-H522): 19 µM (inactive)
GI50 (OVCAR-3): 43.6 µM (inactive)
GI50 (OVCAR-5): > 100 µM (inactive)
GI50 (OVCAR-8): 95.1 µM (inactive)
GI50 (RPMI-8226): 25.8 µM (inactive)
GI50 (RXF 393): > 100 µM (inactive)
GI50 (SF-295): > 100 µM (inactive)
GI50 (SF-539): 82.4 µM (inactive)
GI50 (SK-MEL-28): 63.7 µM (inactive)
GI50 (SK-MEL-2): 33.7 µM (inactive)
GI50 (SK-MEL-5): 17.5 µM (inactive)
GI50 (SK-OV-3): > 100 µM (inactive)
GI50 (SN12C): > 100 µM (inactive)
GI50 (SNB-19): 61.4 µM (inactive)
GI50 (SNB-75): 26.2 µM (inactive)
GI50 (SNB-78): 25.2 µM (inactive)
GI50 (SR): 38.1 µM (inactive)
GI50 (SW-620): 79.1 µM (inactive)
GI50 (TK-10): 99.5 µM (inactive)
GI50 (U-251): 29.6 µM (inactive)
GI50 (UACC-257): 23.9 µM (inactive)
GI50 (UACC-62): 41.1 µM (inactive)
GI50 (UO-31): > 100 µM (inactive)
GI50 (XF498): < 0.01 µM (active)

O=C(CCl)NC(Cc1ccc(F)cc1)C(=O)O (centres undefined)
GI50 (A498): > 100 µM (inactive)
GI50 (A549): > 100 µM (inactive)
GI50 (CAKI-1): > 100 µM (inactive)
GI50 (CCRF-CEM): > 100 µM (inactive)
GI50 (COLO 205): > 100 µM (inactive)
GI50 (DLD-1): > 88.9 µM (inactive)
GI50 (DMS-114): > 100 µM (inactive)
GI50 (DMS-273): > 100 µM (inactive)
GI50 (EKVX): > 46 µM (inactive)
GI50 (HCC 2998): > 92.7 µM (inactive)
GI50 (HCT-116): > 100 µM (inactive)
GI50 (HCT-15): > 100 µM
GI50 (HL-60): > 100 µM (inactive)
GI50 (HOP-18): > 100 µM (inactive)
GI50 (HOP-62): > 100 µM (inactive)
GI50 (HOP-92): > 100 µM (inactive)
GI50 (HT-29): > 100 µM (inactive)
GI50 (IGROV-1): > 100 µM (inactive)
GI50 (K562): > 100 µM (inactive)
GI50 (KM-20L2): > 100 µM (inactive)
GI50 (KM12): > 100 µM (inactive)
GI50 (LOX IMVI): > 100 µM (inactive)
GI50 (M19-MEL): > 100 µM (inactive)
GI50 (MCF7): > 100 µM (inactive)
GI50 (MOLT-4): > 100 µM (inactive)
GI50 (Malme-3M): 69.3 µM (inactive)
GI50 (NCI-H226): > 100 µM (inactive)
GI50 (NCI-H23): > 100 µM (inactive)
GI50 (NCI-H460): > 100 µM (inactive)
GI50 (NCI-H522): > 100 µM (inactive)
GI50 (NCI/ADR-RES): > 100 µM (inactive)
GI50 (OVCAR-3): > 100 µM (inactive)
GI50 (OVCAR-4): > 100 µM (inactive)
GI50 (OVCAR-5): > 100 µM (inactive)
GI50 (OVCAR-8): > 100 µM (inactive)
GI50 (RPMI-8226): > 100 µM (inactive)
GI50 (SF-268): > 100 µM (inactive)
GI50 (SF-295): > 100 µM (inactive)
GI50 (SF-539): > 100 µM (inactive)
GI50 (SK-MEL-28): > 100 µM (inactive)
GI50 (SK-MEL-2): > 100 µM (inactive)
GI50 (SK-MEL-5): > 100 µM (inactive)
GI50 (SK-OV-3): > 100 µM (inactive)
GI50 (SN12C): > 100 µM (inactive)
GI50 (SNB-19): > 100 µM (inactive)
GI50 (SNB-75): > 100 µM (inactive)
GI50 (SNB-78): > 100 µM (inactive)
GI50 (SW-620): > 100 µM (inactive)
GI50 (U-251): > 100 µM (inactive)
GI50 (UACC-257): > 100 µM (inactive)
GI50 (UACC-62): > 100 µM (inactive)
GI50 (UO-31): > 100 µM (inactive)
GI50 (XF498): > 100 µM (inactive)

CC1(C)CC[C@H](C2=CC(=O)c3c(O)ccc(O)c3C2=O)O1
GI50 (DMS-114): 359 nM (active) and 200 nM (active)
GI50 (DU-145): 2.4 µM (inactive) and 2.09 µM (inactive)
GI50 (HOP-62): 4.61 µM (inactive) and 2.72 µM (inactive)
GI50 (Hs-578T): 2.64 µM (inactive) and 2.74 µM (inactive)
GI50 (MCF7): 173 nM (active) and 216 nM (active)
GI50 (MDA-MB-231): 2.44 µM (inactive) and 1.48 µM (inactive)
GI50 (MDA-N): 577 nM (active) and 904 nM (active)
GI50 (NCI/ADR-RES): 2.79 µM (inactive)
GI50 (PC-3): 2.86 µM (inactive) and 1.71 µM (inactive)
GI50 (RXF 631): 1.15 µM (inactive)
GI50 (SK-OV-3): 8.05 µM (inactive) and 4.24 µM (inactive)
GI50 (T47D): 460 nM (active) and 470 nM (active)
